This note sets out measurements from patent publication US20110081325A1, “NOVEL TREATMENT OF HEART DISEASES” (Axiogenesis AG, priority 2008, published 2011).

The subject of series [1] is in vitro differentiated cardiomyocytes. Nature of the series: Cardiotoxic effect of doxorubicin on in vitro differentiated cardiomyocytes. The class given is cell-based, mouse. To be noted: according to Example 4 of WO2005/005621, FIG. 4. As to the method:
(§1) FIGS. 1-4: Effect of different vinca alkaloids (FIGS. 1-3) and doxorubicin (FIG. 4) on the viability and rate of survival of in vitro differentiated cardiomyocytes. EBs were generated and cardiac cells were differentiated as described in Example 1. Photomicrographs were taken before treatment and 48 and 72 hours after treatment. Fluorescent areas representing cardiac cells were measured and calculated as described in Example 2 and 3. Cor.At refers to in vitro differentiated cardiomyocytes and MEF to Mouse Embryonic Fibroblasts.
Thereafter, Example 2, supra, is modified in that doxorubin (doxorubicinhydrochlorid) together with vinblastin, vincristin or vinorelbin is added at different concentrations and reversed dilution series to the cell culture.

Series [2] shares this test system. Kind of series: Survival of in vitro differentiated cardiomyocytes in embryoid bodies (GFP fluorescent area). In kind it is cell-based, mouse. To be noted: ES cell-derived cardiomyocytes, after 72 hours, fluorescent area compared with before treatment. The method, then:
as §1
The generation of “embryoid bodies” (EBs) from high density cell suspensions and differentiation of cardiac cells was essentially performed as described in Example 1 of international application WO2005/005621, the disclosure content of which is hereby incorporated by reference in its entirety. Briefly, mouse embryonic stem cells (ES cells, clone D3, ATCC CRL 1934) were stably transfected with the paMHC-GFP vector containing the gene of the green fluorescent protein under control of the cardiac α-myosin heavy chain (α-MHC) promotor. To obtain this vector, a 5.5 kb fragment containing the promoter region of the mouse α-myosin heavy chain gene (Genbank 471441) was introduced into the polylinker of the pEGFP-1 vector (Clontech Laboratories). […]
To generate EBs, ES cells were cultured in suspension at a density of 2×10^6 cells/ml in a 6 cm petri dish (Greiner, Darmstadt, Germany) in 4 ml IMDM with 20% FCS (Invitrogen, Karlsruhe, Germany) at 37° C., 5% CO2, 95% humidity on a rocking table (GFL 3006, GFL, Braunschweig, Germany) at 50 rpm for 6 hours. […] On day 14, fluorescent areas representing cardiac cells were detected by fluorescence microscopy using a Zeiss Axiovert 200M with a 10x Achroplan objective, a HQ-filterset for GFP (AF Analysentechnik, Tubingen, Germany) and a Sensicam 12 bit cooled imaging system (PCO Imaging, Kelheim, Germany). […]

On to `COc1cccc2c1C(=O)c1c(O)c3c(c(O)c1C2=O)C[C@@](O)(C(=O)CO)C[C@@H]3O[C@H]1C[C@H](N)[C@H](O)[C@H](C)O1` [doxorubicin], for which, in series [1], the “cardiotoxic effect on cardiomyocytes” value is recorded as “cardiotoxic effect”.

For the compound `CC[C@]1(O)C[C@@H]2CN(CCc3c([nH]c4ccccc34)[C@@](C(=O)OC)(c3cc4c(cc3OC)N(C)[C@H]3[C@@](O)(C(=O)OC)[C@H](OC(C)=O)[C@]5(CC)C=CCN6CC[C@]43[C@@H]65)C2)C1` [vinblastin], the “survival of in vitro differentiated cardiomyocytes” value in series [2] was “increase survival”. Same read-out and setting: as for `CC[C@]1(O)C[C@H]2CN(CCc3c([nH]c4ccccc34)[C@@](C(=O)OC)(c3cc4c(cc3OC)N(C=O)[C@H]3[C@@](O)(C(=O)OC)[C@H](OC(C)=O)[C@]5(CC)C=CCN6CC[C@]43[C@@H]65)C2)C1` [vincristin], the entry is “increase survival”. In the case of `CCC1=C[C@@H]2CN(C1)Cc1c([nH]c3ccccc13)[C@@](C(=O)OC)(c1cc3c(cc1OC)N(C)[C@H]1[C@@](O)(C(=O)OC)[C@H](OC(C)=O)[C@]4(CC)C=CCN5CC[C@]31[C@@H]54)C2` [vinorelbin], the “survival of in vitro differentiated cardiomyocytes” value in series [2] is reported as “increase survival”.
